One series concerns Kocuria rhizophila. Put plainly: Antimicrobial activity against Kocuria rhizophila incubated for 24 hrs. The format is functional.
A further series deals with Candida albicans. Put plainly: Antimicrobial activity against Candida albicans incubated for 24 hrs. The format is functional.
A further series has as its system Bacillus subtilis. Put plainly: Antimicrobial activity against Bacillus subtilis incubated for 24 hrs. The format is functional.
For another series, the system named is MDA-MB-231. Put plainly: Cytotoxicity in human MDA-MB-231 cells assessed as reduction in cell viability incubated for 72 hrs by SRB assay. The format is functional, cell-based. Particulars: MDA-MB-231, 72 h. A general note: The SRB assay estimates cell density from bound dye.
Another series deals with Aspergillus fumigatus. Put plainly: Antimicrobial activity against Aspergillus fumigatus incubated for 24 hrs. The format is functional.
The subject of the next series is SNU-638. Nature of the series: Cytotoxicity in human SNU638 cells assessed as reduction in cell viability incubated for 72 hrs by SRB assay. The format is functional, cell-based. Particulars: SNU-638, 72 h.
Series [1] is described as follows: Toxicity in mouse Hepa1c1c7 cells at 2.5 to 20 uM. The format is cell-based.
A further series has as its system Staphylococcus aureus. Nature of the series: Antimicrobial activity against Staphylococcus aureus incubated for 24 hrs. The class given is functional.
Another series relates to Proteus hauseri. Nature of the series: Antimicrobial activity against Proteus hauseri incubated for 24 hrs. The format is functional.
In another series the test system is Escherichia coli. Nature of the series: Antimicrobial activity against Escherichia coli incubated for 24 hrs. The format is functional.
A further series relates to K562. Put plainly: Cytotoxicity in human K562 cells assessed as reduction in cell viability incubated for 72 hrs by SRB assay. The format is functional, cell-based. Particulars: K562, 72 h.
The subject of a further series is SK-HEP1. Nature of the series: Cytotoxicity in human SKHEP1 cells assessed as reduction in cell viability incubated for 72 hrs by SRB assay. The format is functional, cell-based. Particulars: SK-HEP1, 72 h.
The subject of the next series is HCT-116. Nature of the series: Cytotoxicity in human HCT116 cells assessed as reduction in cell viability incubated for 72 hrs by SRB assay. The class given is functional, cell-based. Particulars: HCT-116, 72 h.
The subject of another series is A549. Nature of the series: Cytotoxicity in human A549 cells assessed as reduction in cell viability incubated for 72 hrs by SRB assay. The class given is functional, cell-based. Particulars: A549, 72 h.
The next series deals with Salmonella enterica. Nature of the series: Antimicrobial activity against Salmonella enterica incubated for 24 hrs. The format is functional.

pIC50: −log10 of the molar value.

As a reminder, the MIC is the least concentration at which growth counts as inhibited. Lower therefore signals a more susceptible organism. For orientation: pIC50 means the negative decadic logarithm of the IC50, by convention in mol/L. `CCCCCC/C=C\CCCCCCCCNC(=O)[C@H](O)CO[C@H]1O[C@H](CO)[C@@H](O)[C@H](O)[C@H]1NC(C)=O`: the MIC in the series with Kocuria rhizophila, with Candida albicans, in the series with Bacillus subtilis, against Aspergillus fumigatus, with Staphylococcus aureus and in the series on Proteus hauseri was above 128 µM each time. Besides, the MIC against Escherichia coli and against Salmonella enterica was above 128 µM each time. Also, the pIC50 with MDA-MB-231, in the series on SNU-638, in the series with K562, with SK-HEP1, in the series with HCT-116 and with A549 was below 5.00 each time. In addition, the Activity entry in series [1] was “Non-Toxic”.
Regarding `CCCCCCC/C=C\CCCCCCCCNC(=O)[C@H](O)CO[C@H]1O[C@H](CO)[C@@H](O)[C@H](O)[C@H]1NC(C)=O`, the MIC with Kocuria rhizophila, against Candida albicans, with Bacillus subtilis, in the series with Aspergillus fumigatus, against Staphylococcus aureus and in the series on Proteus hauseri was above 128 µM each time. Besides, the MIC in the series on Escherichia coli and in the series on Salmonella enterica was above 128 µM each time. The pIC50 in the series on MDA-MB-231, in the series with SNU-638, in the series with K562, in the series with SK-HEP1, in the series on HCT-116 and with A549 was below 5.00 each time.
As to `CCCCCCCCCCCCCCCCCNC(=O)[C@H](O)CO[C@H]1O[C@H](CO)[C@@H](O)[C@H](O)[C@H]1NC(C)=O`, the MIC against Kocuria rhizophila, in the series on Candida albicans, in the series on Bacillus subtilis, with Aspergillus fumigatus, against Staphylococcus aureus and against Proteus hauseri was above 128 µM each time. For the same compound, the MIC with Escherichia coli and in the series on Salmonella enterica was above 128 µM in each case. For the same compound, the pIC50 in the series on MDA-MB-231, in the series with SNU-638, in the series with K562, with SK-HEP1, in the series with HCT-116 and in the series on A549 was below 5.00 throughout.
Take `CCCCCCCCCCCCCCCCNC(=O)[C@H](O)CO[C@H]1O[C@H](CO)[C@@H](O)[C@H](O)[C@H]1NC(C)=O`: the minimal inhibitory concentration (MIC) in the series on Kocuria rhizophila, in the series with Candida albicans, in the series on Bacillus subtilis, against Aspergillus fumigatus, with Staphylococcus aureus and against Proteus hauseri was above 128 µM throughout. Besides, the MIC in the series on Escherichia coli and against Salmonella enterica was above 128 µM each time. Moreover, the pIC50 with MDA-MB-231, with SNU-638, in the series with K562, in the series on SK-HEP1, with HCT-116 and with A549 was below 5.00 throughout. For the same compound, the Activity result in series [1] is listed as “Non-Toxic”.

These data come from ChEMBL document CHEMBL4130536, “Deinococcucins A-D, Aminoglycolipids from Deinococcus sp., a Gut Bacterium of the Carpenter Ant Camponotus japonicus” (J Nat Prod, 2017).
